# Data taken from publication PMC6862209, “Deep Eutectic Solvents as New Reaction Media to Produce Alkyl-Glycosides Using Alpha-Amylase from Thermotoga maritima” (International Journal of Molecular Sciences, 2019).
# Key:
# [1] = molecular target: T1, Amy A (α-amylase from Thermotoga maritima) (Thermotoga maritima, UniProt Q9S5Y2); experiment: HPLC of methyl glycosides after glucoamylase treatment; type: biochemical; settings: acceptor in alcoholysis; donor maltotriose 50 mM, 75 °C, choline chloride:urea (1:2):water
# T1 construct: gene TM_1840; heterologous expression in E. coli
# T1 sequence (Q9S5Y2 27-556): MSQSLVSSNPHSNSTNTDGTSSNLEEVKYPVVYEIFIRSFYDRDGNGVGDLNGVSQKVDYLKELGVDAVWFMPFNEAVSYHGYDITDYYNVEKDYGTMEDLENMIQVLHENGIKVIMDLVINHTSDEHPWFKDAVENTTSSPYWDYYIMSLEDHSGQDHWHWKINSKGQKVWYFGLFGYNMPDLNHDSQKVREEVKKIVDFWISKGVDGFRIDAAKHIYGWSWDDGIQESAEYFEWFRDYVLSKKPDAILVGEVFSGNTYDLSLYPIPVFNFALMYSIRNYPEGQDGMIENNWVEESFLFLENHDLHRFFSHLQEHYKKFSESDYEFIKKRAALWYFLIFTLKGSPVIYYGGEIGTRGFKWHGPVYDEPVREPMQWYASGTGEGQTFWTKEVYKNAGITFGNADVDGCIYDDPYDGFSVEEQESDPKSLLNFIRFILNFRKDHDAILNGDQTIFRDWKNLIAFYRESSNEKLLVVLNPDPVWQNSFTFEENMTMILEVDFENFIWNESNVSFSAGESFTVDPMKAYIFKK
# [2] = molecular target: T1, Amy A (α-amylase from Thermotoga maritima); experiment: HPLC of remaining maltotriose (partially purified enzyme); type: biochemical; settings: 50 mM maltotriose, 75 °C, 4 h; water:DES cosolvent series, hydrolysis to maltose and glucose
smiles,measurement,setting,value
CO [methanol],HPLC of methyl glycosides after glucoamylase treatment,[1],"Methyl-glucoside, methyl-maltoside, and interestingly, also methyl-maltotrioside were detected."
OC[C@H]1O[C@H](O[C@H]2[C@H](O)[C@@H](O)[C@@H](O[C@H]3[C@H](O)[C@@H](O)C(O)O[C@@H]3CO)O[C@@H]2CO)[C@H](O)[C@@H](O)[C@@H]1O (some centres unmarked) [maltotriose],HPLC of remaining maltotriose (partially purified enzyme),[2],Substrate conversion was measured as the amount of maltotriose hydrolyzed to maltose and glucose.
